The numbers were not newly measured in US20030228635A1, “Cell proliferation assays and methods” (Renovar, Inc., priority 2002, published 2003), which cites them from elsewhere.

In the data set the test system is cells. Particulars: cells labelled with CFSE; Lyons and Parish 1994.

With “carboxy-fluorescein diacetate, succinimidyl ester [CFSE]”, the “effect on cellular function” value is on record as “does not adversely affect cellular function”.
